Measured values reported in US20040076974A1, “Liver necrosis predictive genes” (priority 2002, published 2004).
Where two headings read alike, the source gives them in different places.

Tested on: Sprague Dawley rats
Description: Sprague Dawley rats Crl:CD from Charles River, Raleigh, N.C. were divided into treated rats that receive a specific concentration of the compound (see Table 1) and. control rats that only received the vehicle in which the compound is mixed (e.g., saline).
At specified timepoints (6 h, 24 h and 72 h) after administration (intraperitoneal route) of the compound, a set number of rats (usually 3 control and 3 treated) were euthanized and tissues collected. Each, rat was heavily sedated with an overdose of CO2 by inhalation and a maximum amount of blood drawn. Exsanguination of the rat by this drawing of blood kills the rat. The method of collecting the tissues is very important and ensures preserving the quality of the mRNA in the tissues. The body of the rat was then opened up and prosectors rapidly removed the tissues (including) and immediately placed them into liquid nitrogen. […] The organs/tissues were then packaged into well-labeled plastic freezer quality bags and stored at −80 degrees until needed for isolation of the mRNA from a portion of the organ/tissue sample.
Histopathology scores for each animal (assigned on a compound-dose basis as indicated in Table 1) were entered with gene expression data by using the GeneSpring™ ‘Drawn Gene’ function. Correlations between the histopathology scores and gene expression were conducted with the distance measures listed below:
Toxicity classifications were entered for training and test set as a parameter column. Toxicity, as defined by observation of necrosis in the at 72 hours after treatment, was entered as a “yes” or “no” for each animal in a compound-dose group. Additionally, a parameter column for random histopathology classification was designated. This was done by randomly assigning the same number of “yes” and “no” calls to the individual animals.

[1] = rat, intraperitoneal, dose 20 mg/kg, 72 hours after treatment
[2] = rat, intraperitoneal, dose 20 mg/kg, 72 hours; 1 = not remarkable, 2 and higher increasing severity
[3] = 72 h; compound-dose group; dose BRB 800, BUS 14, CAD 1, CAR 16
[4] = compound-dose group at 72 h; BUS 14, CAD 1, CAR 16 (dose codes, Table 1)
[5] = Sprague Dawley, rat, in vivo, ip, 25 mg/kg, 72 h
[6] = Sprague Dawley, rat, in vivo, ip, 100 mg/kg, 72 h
[7] = compound-dose group at 72 h; dose 20
[8] = compound-dosegroup at 72 h, dose 20

CN(C)N=O [dimethylnitrosamine]
Liver Toxicity Necrosis Classification (72 h, dose 20): yes
Liver Toxicity Necrosis Classification (72 h; dose 20): yes
Liver Toxicity Necrosis Classification (compound-dose group at 72 h; CCL4 1000, DMN 20, LPS 8): yes
Liver Necrosis [1]: Yes
Score (histopathology liver necrosis severity score) [2]: 9

O=NN(CCCl)C(=O)NCCCl [carmustine]
Liver Toxicity Necrosis Classification (72 h, dose 16): no
Liver Toxicity Necrosis Classification [3]: no
Liver Toxicity Necrosis Classification [4]: no
Liver Toxicity Necrosis Classification (compound-dosegroup at 72 h; dose 16): no
Liver Necrosis (rat, intraperitoneal, dose 16 mg/kg, 72 hours after treatment): no
Score (histopathology liver necrosis severity score) (rat, intraperitoneal, dose 16 mg/kg, 72 hours; 1 = not remarkable, 2 and higher increasing severity): 1

CCC(=O)O[C@H]1[C@H](O[C@@H]2[C@@H](C)[C@H](O[C@H]3C[C@@](C)(OC)[C@@H](O)[C@H](C)O3)[C@@H](C)C(=O)O[C@H](CC)[C@@](C)(O)[C@H](O)[C@@H](C)C(=O)[C@H](C)C[C@@]2(C)O)O[C@H](C)C[C@@H]1N(C)C [erythromycin estolate]
Liver Toxicity Necrosis Classification (72 h, dose 40): no
Liver Toxicity Necrosis Classification (compound-dose group at 72 h; dose 40): no
Liver Toxicity Necrosis Classification (compound-dose group at 72 h; dose 160): no
Liver Toxicity Necrosis Classification (dose 40, 72 h): no
Liver Toxicity Necrosis Classification (dose 160, 72 h): no
Liver Necrosis (rat, intraperitoneal, dose 40 mg/kg, 72 hours after treatment): no
Score (histopathology liver necrosis severity score) (rat, intraperitoneal, dose 40 mg/kg, 72 hours; 1 = not remarkable, 2 and higher increasing severity): 1
Liver Necrosis (rat, intraperitoneal, dose 160 mg/kg, 72 hours after treatment): no
Score (histopathology liver necrosis severity score) (rat, intraperitoneal, dose 160 mg/kg, 72 hours; 1 = not remarkable, 2 and higher increasing severity): 1

Cn1c(=O)c2[nH]cnc2n(C)c1=O [theophylline]
Score (histopathology liver necrosis severity score) [5]: 1
Score (histopathology liver necrosis severity score) [6]: 1
Liver Toxicity Necrosis Classification (rat, in vivo): no
Liver Necrosis (rat, in vivo, ip, 25 mg/kg): no
Liver Necrosis (rat, in vivo, ip, 100 mg/kg): no

CN1CCN(C2=Nc3cc(Cl)ccc3Nc3ccccc32)CC1 [clozapine]
Score (histopathology liver necrosis severity score) (Sprague Dawley, rat, in vivo, ip, 45 mg/kg, 72 h): 1
Score (histopathology liver necrosis severity score) (Sprague Dawley, rat, in vivo, ip, 180 mg/kg, 72 h): 1
Liver Toxicity Necrosis Classification (rat, in vivo): no
Liver Necrosis (rat, in vivo, ip, 45 mg/kg): no
Liver Necrosis (rat, in vivo, ip, 180 mg/kg): no

[Cl][Cd][Cl] [cadmium chloride]
Liver Toxicity Necrosis Classification [3]: no
Liver Toxicity Necrosis Classification (72 h; compound-dose group; dose CAD 2): no
Liver Toxicity Necrosis Classification (compound-dose group at 72 h, dose 1; no = no necrosis observed): no
Liver Toxicity Necrosis Classification (compound-dose group at 72 h, dose 4; yes = necrosis observed): yes
Liver Toxicity Necrosis Classification [4]: no
Liver Necrosis (rat, intraperitoneal, dose 1 mg/kg, 72 hours after treatment): no
Score (histopathology liver necrosis severity score) (rat, intraperitoneal, dose 1 mg/kg, 72 hours; 1 = not remarkable, 2 and higher increasing severity): 1
Liver Necrosis (rat, intraperitoneal, dose 2 mg/kg, 72 hours after treatment): No
Score (histopathology liver necrosis severity score) (rat, intraperitoneal, dose 2 mg/kg, 72 hours; 1 = not remarkable, 2 and higher increasing severity): 1
Liver Necrosis (rat, intraperitoneal, dose 4 mg/kg, 72 hours after treatment): Yes
Score (histopathology liver necrosis severity score) (rat, intraperitoneal, dose 4 mg/kg, 72 hours; 1 = not remarkable, 2 and higher increasing severity): 3

carboxy methyl cellulose
Liver Necrosis (rat, in vivo, ip, 30 mg/kg): no
Score (histopathology liver necrosis severity score) (rat, in vivo, ip, 30 mg/kg): 1

CS(=O)(=O)OCCCCOS(C)(=O)=O [busulfan]
Score (histopathology liver necrosis severity score) (Sprague Dawley, rat, in vivo, ip, 14 mg/kg, 72 h): 1
Liver Toxicity Necrosis Classification (rat, in vivo): no
Liver Necrosis (rat, in vivo, ip, 14 mg/kg): no

O=C(O)c1cc(-c2ccc(F)cc2F)ccc1O [diflunisal]
Score (histopathology liver necrosis severity score) [5]: 1
Score (histopathology liver necrosis severity score) [6]: 1
Liver Toxicity Necrosis Classification (rat, in vivo): no
Liver Necrosis (rat, in vivo, ip, 25 mg/kg): no
Liver Necrosis (rat, in vivo, ip, 100 mg/kg): no

CN(N=O)C(=O)N[C@H]1C(O)O[C@H](CO)[C@@H](O)[C@@H]1O (mixture of isomers) [streptozotocin]
Liver Toxicity Necrosis Classification (compound-dose group at 72 h, dose 20): no
Liver Toxicity Necrosis Classification (compound-dose group at 72 h, dose 75): no
Liver Toxicity Necrosis Classification [7]: no
Liver Toxicity Necrosis Classification (compound-dose group at 72 h; dose 75): no
Liver Toxicity Necrosis Classification [8]: no
Liver Toxicity Necrosis Classification (compound-dosegroup at 72 h, dose 75): no
Liver Toxicity Necrosis Classification (compound-dosegroup at 72 h; dose PEG 5000, PUR 38, QUIN 25, STRZ 20): no
Liver Necrosis [1]: no
Score (histopathology liver necrosis severity score) [2]: 1
Liver Necrosis (rat, intraperitoneal, dose 75 mg/kg, 72 hours after treatment): no
Score (histopathology liver necrosis severity score) (rat, intraperitoneal, dose 75 mg/kg, 72 hours; 1 = not remarkable, 2 and higher increasing severity): 1

aflatoxin B1
Liver Necrosis (rat, in vivo, ip, 1 mg/kg): Yes
Score (histopathology liver necrosis severity score) (rat, in vivo, ip, 1 mg/kg): 8

C[C@@H]1[C@H](O)[C@@H](C)/C=C/C=C/C=C/C=C/C=C/C=C/C=C/[C@H](O[C@@H]2O[C@H](C)[C@@H](O)[C@H](N)[C@@H]2O)C[C@@H]2O[C@](O)(C[C@@H](O)C[C@@H](O)[C@H](O)CC[C@@H](O)C[C@@H](O)CC(=O)O[C@H]1C)C[C@H](O)[C@H]2C(=O)O [amphotericin B]
Liver Toxicity Necrosis Classification (72 h; dose 5): no
Liver Toxicity Necrosis Classification (72 h; dose 20): no
Liver Toxicity Necrosis Classification (AMPB 20; 72 h): no
Liver Toxicity Necrosis Classification (compound-dose group at 72 h; dose 5): no
Liver Toxicity Necrosis Classification [7]: no
Liver Toxicity Necrosis Classification (compound-dosegroup at 72 h, dose 5): no
Liver Toxicity Necrosis Classification [8]: no
Liver Necrosis (rat, intraperitoneal, dose 5 mg/kg, 72 hours after treatment): No
Score (histopathology liver necrosis severity score) (rat, intraperitoneal, dose 5 mg/kg, 72 hours; 1 = not remarkable, 2 and higher increasing severity): 1
Liver Necrosis [1]: No
Score (histopathology liver necrosis severity score) [2]: 1

C=CCN1CC[C@]23c4c5ccc(O)c4O[C@H]2C(=O)CC[C@@]3(O)[C@H]1C5 [naloxone]
Liver Toxicity Necrosis Classification (rat, in vivo): no
Score (histopathology liver necrosis severity score) (rat, in vivo, ip): 1
Liver Necrosis (rat, intraperitoneal, dose 180 mg/kg, 72 hours after treatment): no
Score (histopathology liver necrosis severity score) (rat, intraperitoneal, dose 180 mg/kg, 72 hours; 1 = not remarkable, 2 and higher increasing severity): 1
Liver Necrosis (rat, intraperitoneal, dose 45 ml/kg, 72 hours after treatment): no

CN(Cc1cnc2nc(N)nc(N)c2n1)c1ccc(C(=O)N[C@@H](CCC(=O)O)C(=O)O)cc1 [methotrexate]
Score (histopathology liver necrosis severity score) (Sprague Dawley, rat, in vivo, ip, 5 mg/kg, 72 h): 1
Liver Toxicity Necrosis Classification (rat, in vivo): no
Liver Necrosis (rat, in vivo, ip, 5 mg/kg): no
